Test results from PubChem BioAssay AID1963960 (Molecular Pharmacology Branch, DTP, NCI, 2024).
“And” between values parts separate entries of the source, which are not always exact repeats. Equal values may be shown once.

System: MDA-MB-468 spheroids with HUVEC/MSC, viability
Experiment: Anticancer human tumor MDA-MB-468 cell line growth inhibition [PI3K];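 note: spheroids exposed to agents for seven days before readout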;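 for viability, T/C: 100% = DMSO vehicle control viability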
Details: for viability, T/C: stronger effect = lower value; active = viability on the fitted dose curve at most 10% of control; inactive = the rest
Outline: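 Multi-cell spheroids combine tumor cells with HUVEC and human MSCs, treated with targeted agents alone or with inavolisib, alpelisib, duvelisib or copanlisib. Concentrations fall in half-log steps from at or near clinical Cmax, or from 10 microM where Cmax is unknown; viability read-out.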

[1] = curve of first compound, second compound 0.00316 µM
[2] = curve of first compound, second compound 0.01 µM
[3] = curve of first compound, second compound 0.0316 µM
[4] = curve of first compound, second compound 0.1 µM
[5] = curve of first compound, second compound 0.316 µM
[6] = curve of first compound, second compound 1 µM
[7] = second compound 0.00316 µM, first compound 0.0316 µM
[8] = second compound 0.00316 µM, first compound 0.1 µM
[9] = second compound 0.00316 µM, first compound 0.316 µM
[10] = second compound 0.00316 µM, first compound 1 µM
[11] = second compound 0.00316 µM, first compound 3.16 µM
[12] = second compound 0.00316 µM, first compound 10 µM
[13] = second compound 0.01 µM, first compound 0.0316 µM
[14] = second compound 0.01 µM, first compound 0.1 µM
[15] = second compound 0.01 µM, first compound 0.316 µM
[16] = second compound 0.01 µM, first compound 1 µM
[17] = second compound 0.01 µM, first compound 3.16 µM
[18] = second compound 0.01 µM, first compound 10 µM
[19] = second compound 0.0316 µM, first compound 0.0316 µM
[20] = second compound 0.0316 µM, first compound 0.1 µM
[21] = second compound 0.0316 µM, first compound 0.316 µM
[22] = second compound 0.0316 µM, first compound 1 µM
[23] = second compound 0.0316 µM, first compound 3.16 µM
[24] = second compound 0.0316 µM, first compound 10 µM
[25] = second compound 0.1 µM, first compound 0.0316 µM
[26] = second compound 0.1 µM, first compound 0.1 µM
[27] = second compound 0.1 µM, first compound 0.316 µM
[28] = second compound 0.1 µM, first compound 1 µM
[29] = second compound 0.1 µM, first compound 3.16 µM
[30] = second compound 0.1 µM, first compound 10 µM
[31] = second compound 0.316 µM, first compound 0.0316 µM
[32] = second compound 0.316 µM, first compound 0.1 µM
[33] = second compound 0.316 µM, first compound 0.316 µM
[34] = second compound 0.316 µM, first compound 1 µM
[35] = second compound 0.316 µM, first compound 3.16 µM
[36] = second compound 0.316 µM, first compound 10 µM
[37] = second compound 1 µM, first compound 0.0316 µM
[38] = second compound 1 µM, first compound 0.1 µM
[39] = second compound 1 µM, first compound 0.316 µM
[40] = second compound 1 µM, first compound 1 µM
[41] = second compound 1 µM, first compound 3.16 µM
[42] = second compound 1 µM, first compound 10 µM

CNC(=O)c1ccc(N2C(=S)N(c3ccc(C#N)c(C(F)(F)F)c3)C(=O)C2(C)C)cc1F + CC(Nc1ccc2c(c1)OCCn1cc(N3C(=O)OCC3C(F)F)nc1-2)C(N)=O
> 10 µM: IC50 [1] | IC50 [2] | IC50 [3] | IC50 [4] | IC50 [5] | IC50 [6]
inactive: viability, T/C [7] 95.2% | viability, T/C [8] 94.6% | viability, T/C [9] 94.9% | viability, T/C [10] 98.9% | viability, T/C [11] 94.3% | viability, T/C [12] 76.7% | viability, T/C [13] 100% | viability, T/C [14] 107% | viability, T/C [15] 105% | viability, T/C [16] 107% | viability, T/C [17] 82.3% | viability, T/C [18] 76.5% | viability, T/C [19] 90.7% | viability, T/C [20] 105% | viability, T/C [21] 80.5% | viability, T/C [22] 98.5% | viability, T/C [23] 80.8% | viability, T/C [24] 62.2% | viability, T/C [25] 85.9% | viability, T/C [26] 84.1% | viability, T/C [27] 83.5% | viability, T/C [28] 85.8% | viability, T/C [29] 82.1% | viability, T/C [30] 56.4% | viability, T/C [31] 95.6% | viability, T/C [32] 84.6% | viability, T/C [33] 75.8% | viability, T/C [34] 95.2% | viability, T/C [35] 94% | viability, T/C [36] 57.1% | viability, T/C [37] 88% | viability, T/C [38] 76.4% | viability, T/C [39] 79.9% | viability, T/C [40] 79.9% | viability, T/C [41] 73.3% | viability, T/C [42] 57.1%

CCN1CCN(Cc2ccc(Nc3ncc(F)c(-c4cc(F)c5nc(C)n(C(C)C)c5c4)n3)nc2)CC1
inactive: viability, T/C (compound 0.00316 µM) 98.5% and 101% (2×) and 106% | viability, T/C (compound 0.0316 µM) 99.3% [middle of 4 runs] | viability, T/C (compound 0.316 µM) 108% [middle of 4 runs] | viability, T/C (compound 1 µM) 66.1% [middle of 4 runs]
> 1 µM: IC50 (curve of compound)

Cn1ncc(Cl)c1-c1cc(C(=O)NC(CN)Cc2cccc(F)c2)sc1Cl (stereo unspecified) + COc1c(OCCCN2CCOCC2)ccc2c3n(c(=NC(=O)c4cnc(N)nc4)nc12)CCN3
0.331 µM: IC50 [1]
0.152 µM: IC50 [3]
active: viability, T/C [30] 7.31% | viability, T/C [36] 4.16% | viability, T/C [37] 3.44% | viability, T/C [38] 3.28% | viability, T/C [39] 3.02% | viability, T/C [40] 3.44% | viability, T/C [41] 3.8% | viability, T/C [42] 1.32%
inactive: viability, T/C [7] 78.5% | viability, T/C [8] 66.2% | viability, T/C [9] 50.1% | viability, T/C [10] 36.1% | viability, T/C [11] 25.3% | viability, T/C [12] 17.2% | viability, T/C [13] 71.8% | viability, T/C [14] 64.2% | viability, T/C [15] 42.7% | viability, T/C [16] 33.2% | viability, T/C [17] 22.9% | viability, T/C [18] 14.6% | viability, T/C [19] 66.5% | viability, T/C [20] 58.7% | viability, T/C [21] 37.2% | viability, T/C [22] 28.5% | viability, T/C [23] 22.1% | viability, T/C [24] 12.1% | viability, T/C [25] 49.6% | viability, T/C [26] 40% | viability, T/C [27] 33.9% | viability, T/C [28] 25.4% | viability, T/C [29] 17.5% | viability, T/C [31] 25.1% | viability, T/C [32] 21.1% | viability, T/C [33] 20.4% | viability, T/C [34] 14.9% | viability, T/C [35] 12.7%
< 0.0316 µM: IC50 [4] | IC50 [5] | IC50 [6]
0.236 µM: IC50 [2]

CCCS(=O)(=O)Nc1ccc(F)c(C(=O)c2c[nH]c3ncc(-c4ccc(Cl)cc4)cc23)c1F
inactive: viability, T/C (compound 0.316 µM) 107% [middle of 4 runs] | viability, T/C (compound 1 µM) 97.7% [middle of 4 runs] | viability, T/C (compound 3.16 µM) 78.9% [middle of 4 runs] | viability, T/C (compound 10 µM) 16.4% [middle of 4 runs]
5.5 µM [middle of 4 runs]: IC50 (curve of compound)

Cn1nccc1Nc1nccc(-c2ccn(C(CO)c3ccc(Cl)c(F)c3)c(=O)c2)n1 (stereo unspecified) + CC(Nc1ncnc2nc[nH]c12)c1cc2cccc(Cl)c2c(=O)n1-c1ccccc1
> 10 µM: IC50 [3] | IC50 [4] | IC50 [5] | IC50 [6] | IC50 (curve of first compound, second compound 3.16 µM)
inactive: viability, T/C [19] 74.2% | viability, T/C [20] 84.5% | viability, T/C [21] 79.5% | viability, T/C [22] 79.6% | viability, T/C [23] 79.4% | viability, T/C [24] 78.3% | viability, T/C [25] 80.1% | viability, T/C [26] 86.1% | viability, T/C [27] 77.8% | viability, T/C [28] 96.7% | viability, T/C [29] 83.8% | viability, T/C [30] 73.5% | viability, T/C [31] 73.1% | viability, T/C [32] 69.3% | viability, T/C [33] 68.4% | viability, T/C [34] 73% | viability, T/C [35] 78.5% | viability, T/C [36] 78.9% | viability, T/C [37] 65.7% | viability, T/C [38] 59.8% | viability, T/C [39] 62% | viability, T/C [40] 71.8% | viability, T/C [41] 73.4% | viability, T/C [42] 72% | viability, T/C (second compound 3.16 µM, first compound 0.0316 µM) 56.6% | viability, T/C (second compound 3.16 µM, first compound 0.1 µM) 55.1% | viability, T/C (second compound 3.16 µM, first compound 0.316 µM) 49% | viability, T/C (second compound 3.16 µM, first compound 1 µM) 63.2% | viability, T/C (second compound 3.16 µM, first compound 3.16 µM) 54.5% | viability, T/C (second compound 3.16 µM, first compound 10 µM) 48.8% | viability, T/C (second compound 10 µM, first compound 0.0316 µM) 33.8% | viability, T/C (second compound 10 µM, first compound 0.1 µM) 34.8% | viability, T/C (second compound 10 µM, first compound 0.316 µM) 31.1% | viability, T/C (second compound 10 µM, first compound 1 µM) 32.2% | viability, T/C (second compound 10 µM, first compound 3.16 µM) 39.2% | viability, T/C (second compound 10 µM, first compound 10 µM) 27.6%
< 0.0316 µM: IC50 (curve of first compound, second compound 10 µM)
